Assay [1] addresses Truncated G2019 human LRRK2 (1326-2527) (Homo sapiens (Human), UniProt Q5S007). Kind of assay: Truncated G2019 human LRRK2 (1326-2527) inhibition mass spectrometry assay. Format: biochemical. Conditions: 6HIS-Tev-LRRK2 (1326-2527), 25 uM LRRKtide, 20 uM ATP; for IC50: read-out: Truncated G2019 human LRRK2 inhibition mass spectrometry assay (pIC50) (converted). From the text:
1) Truncated G2019 Human LRRK2 (1326-2527) Inhibition Mass Spectrometry Assay
A LRRK2 cDNA encoding residues 1326-2527 was received from Dundee University (described in M. Jaleel et al., 2007, Biochem J, 405: 407-417). This gene fragment was subcloned into pFB-HTb (Invitrogen) using BamHI and NotI restriction sites. The LRRK2 plasmid was recombined into the baculovirus genome according to the BAC-to-BAC protocol described by Invitrogen. Transfection into Spodoptera frugiperda (Sf9) insect cells was performed using Cellfectin (Invitrogen), according to the manufacturer's protocol to generate P1 and P2 baculovirus stocks.
Sf9 cells were grown in HyClone SFX (Thermo Scientific) growth media at 27° C., 80 rpm in shake flask until of a sufficient volume to inoculate a bioreactor. The cells were grown in a 20 litre working volume Wave bioreactor (GE Healthcare) at 27° C., 50% dissolved oxygen and an agitation rate 22 rocks per minute, 10 degree rock angle, 200 ml/min air with a cell concentration of approximately 6xe6 cells/ml. The cells were infected with P2 Baculovirus at a multiplicity of infection (MOI) of 3. The cultivation was continued for a 48 hour expression phase. The infected cells were removed from the growth media by centrifugation at 2500 g using a Sorvall RC 3C Plus centrifuge at 2500 g for 20 minutes. The cell pellet was immediately frozen and subsequently supplied for purification.
A 260 g pellet was allowed to thaw in a water bath at 27° C. with 800 ml lysis buffer/buffer A (50 mm Tris-HCl pH 8.5, 300 mM NaCl, 1 mm DTT, 10% glycerol, 1 ml/L Calbiochem complete protease inhibitor cocktail and benzonase (50 ul/800 ml)) before being dounce homogenised on ice using 20 strokes per 100 ml. The suspension was packed in ice and sonicated at 50% amplitude for 3 min 10 sec on/off using a ¾″ probe. The suspension was then centrifuged at 100,000 g for 90 min, at 4° C.
The lysate (700 ml) was decanted from the insoluble pellet and contacted for 3h at 4° C. with 10 ml His bind Ni NTA resin by end over end mixing. The resin was recovered by centrifugation, 3000 g, 5 min at 4° C., and packed in an XK16 column. The column was then washed with 10 column volumes buffer A, 10 column volumes buffer B (buffer A+1M NaCl) and 10 column volumes buffer C (buffer A+20 mM imidazole). The column was then eluted with 15 column volumes buffer D (buffer A+300 mM imidazole) collecting 2 ml fractions. All washes and elution were conducted at 4 ml/min.
Fractions identified by SDS-PAGE as containing protein of interest were pooled and loaded directly onto a 320 ml SEC Superdex 200 pg column that was pre-equilibrated with buffer E (50 mM Tris-HCl pH 8.5, 300 mM NaCl, 10% glycerol, 1 mM DTT). The column was loaded and eluted with 1.2 column volumes buffer E at 2 ml/min collecting 2 ml fractions. Fractions identified by SDS-PAGE as containing protein of interest were tested for activity.
Production of LRRKtide for LRRK2 Inhibition Mass Spectrometry Assay
The ‘LRRKtide’ peptide (SEQ ID NO. 10) was synthesized as follows. The protected peptide was assembled on a solid-phase synthesiser using preloaded Wang resin and utilising standard Fmoc synthesis protocols. The crude peptide was obtained after cleavage from the resin with a mixture of trifluoroacetic acid (TFA), triisopropylsilane and water (95:2.5:2.5) for 3 hours at room temperature and was then purified using a C18 reverse-phase column utilising a 0.1% TFA-buffered water/acetonitrile gradient. The resulting fractions were analysed and fractions which were >95% pure by analytical HPLC and giving the correct molecular weight (mw) (by MALDiTOF mass spectroscopy) were pooled and freeze dried. The final material was analysed by HPLC and MALDiTOF mass spectroscopy.
Truncated G2019 Human LRRK2 (1326-2527) Inhibition Mass Spectrometry Assay […]

In assay [2] the target is LRRK2 Ser935 phosphorylation in SH-SY5Y cells over-expressing recombinant full length LRRK2 (Homo sapiens (Human), UniProt Q5S007). The assay can be described thus: Recombinant cellular LRRK2 AlphaScreen assay. Conditions: 60 minutes, read-out: Recombinant cellular LRRK2 alphaScreen assay (pIC50) (converted). Type of assay: cell-based. From the text:
To determine the activity of compounds against LRRK2 kinase activity in cells, the observed LRRK2 kinase-dependent modulation of LRRK2 Ser 935 phosphorylation (Dzamko et al., 2010, Biochem. J. 430: 405-413) was utilized to develop a quantitative 384 well plate-based immunoassay of LRRK2 Ser935 phosphorylation in the human neuroblastoma cell line SH-SY5Y, engineered to over-express recombinant full length LRRK2 protein.
A BacMam virus expressing full length recombinant LRRK2 was purchased from Invitrogen and amplified by inoculation of SF-9 cells at MOI 0.3 for 4-5 days in Sf-900 III SFM medium supplemented with 3% fetal bovine serum. Infected cell cultures were then centrifuged at 2000 g for 20 minutes, viral supernatant titer determined by anti-gp64 plaque assay and stored at 4° C.
Affinity-purified anti-phospho LRRK2 Ser935 sheep polyclonal antibody (Dzamko et al., 2010, Biochem. J. 430: 405-413) was biotinylated by standard methods (PerkinElmer). Anti-LRRK2 rabbit polyclonal antibody was purchased from Novus Biologicals. AlphaScreen Protein A IgG Kit (including acceptor and donor beads) was purchased from Perkin Elmer.
SH-SY5Y cells were grown in DMEM/F12 medium with 10% dialysed fetal bovine serum and harvested by treatment with 0.5% trypsin-EDTA for 5 minutes at 37° C. followed by centrifugation at 1000 rpm for 4 minutes. The cell pellet was resuspended in Opti-MEM reduced serum media (Invitrogen) at 200,000 cells/ml and mixed with the BacMam LRRK2 virus at M01=50. 50 μl cell solutions were then dispensed to each well of a 384-well plate and incubated at 37° C., 5% CO2 for 24 hours.
Serial dilutions of test compounds were prepared in Opti-MEM reduced serum media (Invitrogen) and 5.6 ul transferred from compound plate to cell assay plate to achieve a top final assay concentration of 10 uM. DMSO was used in certain wells as controls. Cells were incubated at 37° C., 5% CO2 for 60 minutes. The medium was then removed and cells lysed by addition of 20 ul cell lysis buffer (Cell Signaling Technology) and incubation at 4° C. for 20 minutes. 10 ul of antibody/acceptor bead mix [( 1/1000 biotinylated-pS935 LRRK2 antibody, 1/1000 total-LRRK2 antibody, 1/100 Acceptor beads in AlphaScreen detection buffer (25 mM Hepes (pH 7.4), 0.5% Triton X-100, 1 mg/ml Dextran 500 and 0.1% BSA)] was then added to each well and plates incubated for 2 hours at ambient temperature in the dark. 10 μl of donor beads solution (1/33.3 donor beads in AlphaScreen detection buffer) was then added to each well. Following incubation for a further 2 hours at ambient temperature in the dark, plates were read on an EnVision™ plate reader at emission 520-620 nm with excitation 680 nm. Dose response curve data was based on sigmoidal dose-response model.

The structures appear in SMILES notation. Where a name gives a salt, the structure may show the parent alone.

Chain of LRRK2 Ser935 phosphorylation in SH-SY5Y cells over-expressing recombinant full length LRRK2 (Q5S007 whole entry): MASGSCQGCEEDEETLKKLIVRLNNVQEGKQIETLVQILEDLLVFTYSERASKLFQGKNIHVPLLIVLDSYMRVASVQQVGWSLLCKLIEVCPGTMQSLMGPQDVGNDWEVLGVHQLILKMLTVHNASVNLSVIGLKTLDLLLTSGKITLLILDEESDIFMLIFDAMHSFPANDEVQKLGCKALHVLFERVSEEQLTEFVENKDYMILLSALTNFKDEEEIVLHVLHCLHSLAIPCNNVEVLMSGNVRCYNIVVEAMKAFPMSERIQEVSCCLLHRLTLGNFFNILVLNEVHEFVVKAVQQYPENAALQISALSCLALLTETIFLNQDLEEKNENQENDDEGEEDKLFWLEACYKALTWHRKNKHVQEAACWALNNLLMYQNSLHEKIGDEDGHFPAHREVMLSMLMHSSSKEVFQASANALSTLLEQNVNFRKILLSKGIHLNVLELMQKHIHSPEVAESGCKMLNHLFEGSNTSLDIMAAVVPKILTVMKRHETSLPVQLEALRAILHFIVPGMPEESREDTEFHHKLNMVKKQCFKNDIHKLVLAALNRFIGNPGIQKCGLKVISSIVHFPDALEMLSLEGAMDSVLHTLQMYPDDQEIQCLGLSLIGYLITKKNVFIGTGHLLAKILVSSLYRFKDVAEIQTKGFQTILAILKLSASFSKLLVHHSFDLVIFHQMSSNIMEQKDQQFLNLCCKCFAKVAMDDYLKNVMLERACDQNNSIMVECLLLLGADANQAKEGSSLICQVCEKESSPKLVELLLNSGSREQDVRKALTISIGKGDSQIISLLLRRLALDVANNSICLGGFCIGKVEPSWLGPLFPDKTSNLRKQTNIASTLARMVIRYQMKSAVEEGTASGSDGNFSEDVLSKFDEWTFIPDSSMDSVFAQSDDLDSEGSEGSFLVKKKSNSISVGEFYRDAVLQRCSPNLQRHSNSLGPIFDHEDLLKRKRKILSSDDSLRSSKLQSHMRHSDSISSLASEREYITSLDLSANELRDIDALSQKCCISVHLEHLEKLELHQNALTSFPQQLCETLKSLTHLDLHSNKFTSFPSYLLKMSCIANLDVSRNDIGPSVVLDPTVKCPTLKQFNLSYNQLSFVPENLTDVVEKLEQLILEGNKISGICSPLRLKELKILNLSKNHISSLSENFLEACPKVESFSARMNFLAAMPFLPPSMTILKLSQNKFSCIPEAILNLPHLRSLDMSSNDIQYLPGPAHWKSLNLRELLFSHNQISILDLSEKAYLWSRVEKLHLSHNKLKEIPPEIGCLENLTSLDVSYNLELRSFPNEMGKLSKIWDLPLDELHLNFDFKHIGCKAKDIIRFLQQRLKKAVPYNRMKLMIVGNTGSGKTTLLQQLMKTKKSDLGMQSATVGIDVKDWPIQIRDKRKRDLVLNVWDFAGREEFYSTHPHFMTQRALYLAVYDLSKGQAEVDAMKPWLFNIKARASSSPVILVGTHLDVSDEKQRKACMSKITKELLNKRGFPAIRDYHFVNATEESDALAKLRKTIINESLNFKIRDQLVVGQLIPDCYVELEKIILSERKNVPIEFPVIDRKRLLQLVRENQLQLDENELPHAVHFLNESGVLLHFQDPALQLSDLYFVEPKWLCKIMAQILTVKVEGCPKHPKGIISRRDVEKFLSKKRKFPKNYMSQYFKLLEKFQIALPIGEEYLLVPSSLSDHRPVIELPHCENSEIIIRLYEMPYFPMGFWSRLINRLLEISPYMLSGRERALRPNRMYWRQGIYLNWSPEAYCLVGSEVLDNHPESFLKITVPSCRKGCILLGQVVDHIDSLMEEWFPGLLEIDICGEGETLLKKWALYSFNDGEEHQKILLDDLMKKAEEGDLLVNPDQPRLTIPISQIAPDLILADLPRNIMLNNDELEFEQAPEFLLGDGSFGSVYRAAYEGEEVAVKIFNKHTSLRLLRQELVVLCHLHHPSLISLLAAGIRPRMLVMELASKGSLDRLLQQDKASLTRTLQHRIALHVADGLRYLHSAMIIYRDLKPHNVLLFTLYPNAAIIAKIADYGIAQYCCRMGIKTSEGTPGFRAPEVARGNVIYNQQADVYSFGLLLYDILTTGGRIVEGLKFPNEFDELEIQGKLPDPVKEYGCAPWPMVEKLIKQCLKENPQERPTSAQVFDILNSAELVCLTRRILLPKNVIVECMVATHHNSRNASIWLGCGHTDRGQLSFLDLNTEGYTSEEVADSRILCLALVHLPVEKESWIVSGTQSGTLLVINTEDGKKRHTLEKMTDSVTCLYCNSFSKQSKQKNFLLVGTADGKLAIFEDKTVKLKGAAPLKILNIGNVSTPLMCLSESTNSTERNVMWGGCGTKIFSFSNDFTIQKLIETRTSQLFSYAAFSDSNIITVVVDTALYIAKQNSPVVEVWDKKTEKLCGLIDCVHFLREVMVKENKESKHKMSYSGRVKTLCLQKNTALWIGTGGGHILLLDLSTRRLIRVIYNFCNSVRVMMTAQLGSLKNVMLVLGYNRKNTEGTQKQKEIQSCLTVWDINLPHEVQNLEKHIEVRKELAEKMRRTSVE
Chain of Truncated G2019 human LRRK2 (1326-2527) (Q5S007 1326-2527): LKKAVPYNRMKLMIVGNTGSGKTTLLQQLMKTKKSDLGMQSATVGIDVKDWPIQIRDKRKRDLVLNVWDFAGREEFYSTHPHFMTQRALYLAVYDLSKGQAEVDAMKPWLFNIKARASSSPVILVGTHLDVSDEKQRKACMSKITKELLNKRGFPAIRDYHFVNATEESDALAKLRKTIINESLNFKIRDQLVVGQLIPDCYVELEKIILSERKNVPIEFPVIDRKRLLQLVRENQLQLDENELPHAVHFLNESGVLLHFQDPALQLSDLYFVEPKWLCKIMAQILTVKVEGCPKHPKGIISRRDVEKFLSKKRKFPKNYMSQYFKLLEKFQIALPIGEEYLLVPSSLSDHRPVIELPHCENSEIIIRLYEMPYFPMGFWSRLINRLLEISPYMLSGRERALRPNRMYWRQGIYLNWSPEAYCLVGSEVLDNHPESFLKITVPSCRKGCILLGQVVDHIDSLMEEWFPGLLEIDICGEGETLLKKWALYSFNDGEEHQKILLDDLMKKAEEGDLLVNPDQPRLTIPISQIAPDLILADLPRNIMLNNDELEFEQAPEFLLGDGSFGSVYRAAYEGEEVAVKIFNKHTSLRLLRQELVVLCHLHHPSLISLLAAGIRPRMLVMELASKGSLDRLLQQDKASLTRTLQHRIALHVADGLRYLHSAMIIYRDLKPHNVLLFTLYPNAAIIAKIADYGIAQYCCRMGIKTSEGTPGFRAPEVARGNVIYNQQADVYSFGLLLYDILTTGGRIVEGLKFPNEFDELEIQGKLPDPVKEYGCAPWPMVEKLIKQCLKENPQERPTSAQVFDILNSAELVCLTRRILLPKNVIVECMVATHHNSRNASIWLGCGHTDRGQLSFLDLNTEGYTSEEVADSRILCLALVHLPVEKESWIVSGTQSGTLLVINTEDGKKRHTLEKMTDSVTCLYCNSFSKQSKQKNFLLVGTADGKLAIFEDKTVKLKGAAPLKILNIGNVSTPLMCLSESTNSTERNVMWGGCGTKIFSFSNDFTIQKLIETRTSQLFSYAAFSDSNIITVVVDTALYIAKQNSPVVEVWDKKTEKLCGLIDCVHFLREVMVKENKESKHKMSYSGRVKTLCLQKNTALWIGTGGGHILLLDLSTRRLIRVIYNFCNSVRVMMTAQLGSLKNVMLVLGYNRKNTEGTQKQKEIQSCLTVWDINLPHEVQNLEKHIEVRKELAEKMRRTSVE

Consider `COc1nc(N2CC(O)C2)cc(-n2ncc3cc(C)c(C4CCN(C)CC4F)cc32)n1` (single isomer, unassigned) [Example E38, (cis)-1-(6-(6-(3-Fluoro-1-methylpiperidin-4-yl)-5-methyl-1H-indazol-1-yl)-2-methoxypyrimidin-4-yl)azetidin-3-ol], for which the “Truncated G2019 human LRRK2 inhibition mass spectrometry assay (pIC50)” value in assay [1] worked out at 8. In assay [2], the IC50 is 31.6 nM.
As for `COc1nc(N2CCOCC2)cc(-n2ncc3cc(C)c(C4CCN(C)CC4(F)F)cc32)n1` (single isomer, unassigned) [Example E4, 4-(6-(6-(3,3-Difluoro-1-methylpiperidin-4-yl)-5-methyl-1H-indazol-1-yl)-2-methoxypyrimidin-4-yl)morpholine], the IC50 in assay [1] is 7.94 nM; in assay [2] it was 25.1 nM.
For `COc1nc(N2CCOCC2)cc(-n2ncc3cc(C)c([C@H]4CCNC[C@H]4F)cc32)n1` (single isomer, unassigned) [Example E62, (cis)-4-(6-(6-(3-Fluoropiperidin-4-yl)-5-methyl-1H-indazol-1-yl)-2-methoxypyrimidin-4-yl)morpholine hydrochloride], the IC50 in assay [1] is 7.94 nM; in assay [2], 50.1 nM.
With `Cc1nc(N2CC(O)C2)cc(-n2ncc3cc(C)c(C4CCN(C)CC4F)cc32)n1` (single isomer, unassigned) [Example E41, (cis)-1-(6-(6-(3-Fluoro-1-methylpiperidin-4-yl)-5-methyl-1H-indazol-1-yl)-2-methylpyrimidin-4-yl)azetidin-3-ol], the “Truncated G2019 human LRRK2 inhibition mass spectrometry assay (pIC50)” value in assay [1] amounted to 7.9. The IC50 in assay [2] is 126 nM.
For `COc1nc(N2CC(O)C2)cc(-n2ncc3cc(C)c(C4CCN(C5COC5)CC4)cc32)n1` [Example E79, 1-(2-Methoxy-6-(5-methyl-6-(1-(oxetan-3-yl)piperidin-4-yl)-1H-indazol-1-yl)pyrimidin-4-yl)azetidin-3-ol], the values for the IC50 in assay [1] and in assay [2] were 12.6 nM and 10 nM, respectively.
Regarding `Cc1cc2cnn(-c3cc(N4CC(O)C4)nc(OC(F)F)n3)c2cc1C1CCN(C)CC1F` (single isomer, unassigned) [Example E48, (cis)-1-(2-(Difluoromethoxy)-6-(6-(3-fluoro-1-methylpiperidin-4-yl)-5-methyl-1H-indazol-1-yl)pyrimidin-4-yl)azetidin-3-ol], the IC50 in assay [1] is at most 10000 nM.
For `COc1nc(N2CCNCC2)cc(-n2ncc3cc(C)c(N4CCOCC4)cc32)n1` [Example E117, 4-(1-(2-Methoxy-6-(piperazin-1-yl)pyrimidin-4-yl)-5-methyl-1H-indazol-6-yl)morpholine], the IC50 in assay [1] was 25.1 nM; in assay [2], 631 nM.
Consider `COc1nc(N2CCOCC2)cc(-n2ncc3cc(C)c(C4CCN(C5COC5)CC4(F)F)cc32)n1` (single isomer, unassigned) [Example E22, 4-(6-(6-(3,3-Difluoro-1-(oxetan-3-yl)piperidin-4-yl)-5-methyl-1H-indazol-1-yl)-2-methoxypyrimidin-4-yl)morpholine], for which the values for the IC50 in assay [1] and in assay [2] were 7.94 nM and 12.6 nM, respectively.
Regarding `COc1nc(N2CC(C#N)C2)cc(-n2ncc3cc(C)c(C4CCNCC4(F)F)cc32)n1` (single isomer, unassigned) [Example E66, 1-(6-(6-(3,3-Difluoropiperidin-4-yl)-5-methyl-1H-indazol-1-yl)-2-methoxypyrimidin-4-yl)azetidine-3-carbonitrile], the figures for the IC50 in assay [1] and in assay [2] were 31.6 nM and 126 nM, respectively.
Take `CNC(=O)[C@H]1CN(c2cc(-n3ncc4cc(C)c(C5CCN(C)CC5(F)F)cc43)nc(OC)n2)CCO1` (single isomer, unassigned) [Example E18]: the IC50 in assay [1] and in assay [2] was 12.6 nM throughout.
Turning to `Cc1cc2cnn(-c3cc(N4CCOCC4)nc(OC(C)C)n3)c2cc1C1CCN(C2COC2)CC1(F)F` (single isomer, unassigned) [Example E25, 4-(6-(6-(3,3-Difluoro-1-(oxetan-3-yl)piperidin-4-yl)-5-methyl-1H-indazol-1-yl)-2-isopropoxypyrimidin-4-yl)morpholine], the IC50 in assay [2] was over 10000 nM.
Turning to `CCN1CC[C@H](c2cc3c(cnn3-c3cc(N4CC(O)C4)nc(C)n3)cc2C)[C@H](F)C1` (single isomer, unassigned) [Example E146, (cis)-1-(6-(6-(1-Ethyl-3-fluoropiperidin-4-yl)-5-methyl-1H-indazol-1-yl)-2-methylpyrimidin-4-yl)azetidin-3-ol], the IC50 in assay [2] is at most 100 nM.
Consider `Cc1cc2cnn(-c3cc(N4CCOCC4)nc(OC(C)C)n3)c2cc1C1CCN(C)CC1(F)F` (single isomer, unassigned) [Example E7, 4-(6-(6-(3,3-Difluoro-1-methylpiperidin-4-yl)-5-methyl-1H-indazol-1-yl)-2-isopropoxypyrimidin-4-yl)morpholine], for which, in assay [2], the IC50 was over 10000 nM.
For `Cc1nc(N2CC(O)C2)cc(-n2ncc3cc(C)c(C4CCOCC4)cc32)n1` [Example E89, 1-(2-Methyl-6-(5-methyl-6-(tetrahydro-2H-pyran-4-yl)-1H-indazol-1-yl)pyrimidin-4-yl)azetidin-3-ol], the IC50 in assay [2] was at most 100 nM.

(Values after patent publication US10975081B2, “Substituted fused pyrazole compounds and their use as LRRK2 inhibitors” (GlaxoSmithKline Intellectual Property Development Limited, priority 2015, dated 2021).)
